Measured values as given in patent US5212310A (priority 1991, dated 1993).

Experiments:
[1] = system: clonazepam-sensitive benzodiazepine binding site; details: cited from earlier work
GABAa receptor = GABAa receptor binding assay, displacement of 3H-RO15-1788 [3H-Flumazenil] in rat cortical tissue; details: 0.5 nM 3H-RO15-1788 [3H-Flumazenil], 30 min at 4° C., pH 7.4
Protocol: The pharmaceutical utility of compounds of this invention are indicated by the following assay for GABAa receptor activity.
Assays are carried out as described in Thomas and Tallman (J. Bio. Chem. 156: 9838-9842, J. Neurosci. 3:433-440, 1983). Rat cortical tissue is dissected and homogenized in 25 volumes (w/v) of 0.05M Tris HCl buffer (pH 7.4 at 4° C.). The tissue homogenate is centrifuged in cold (4°) at 20,000×g for 20'. The supernatant is decanted and the pellet is rehomogenized in the same volume of buffer and again centrifuged at 20,000×g. The supernatant is decanted and the pellet is frozen at -20° C. overnight. The pellet is then thawed and rehomogenized in 25 volume (original wt/vol) of buffer and the procedure is carried out twice. The pellet is finally resuspended in 50 volumes (w/vol of 0.05M Tris HCl buffer (pH 7.4 at […]).
Incubations contain […] of radioligand 0.5 nM (^3 H-RO15-1788 [^3 H-Flumazenil] specific activity 80 Ci/mmol), drug or blocker and buffer to a total volume of […]. Incubations are carried for 30 min at 4° C. then are rapidly filtered through GFB filters to separate free and bound ligand. Filters are washed twice with fresh 0.05M Tris HCl buffer (pH 7.4 at 4° C.) and counted in a liquid scintillation counter. […] diazepam is added to some tubes to determine nonspecific binding. Data are collected in triplicate determinations, averaged and % inhibition of total specific binding is calculated. Total Specific Binding=Total-Nonspecific. In some cases, the amounts of unlabeled drugs is varied and total displacement curves of binding are carried out. Data are converted to a form for the calculation of IC50 and Hill Coefficient (nH).

CN1CCc2cc3c(cc2[C@H]1[C@@H]1OC(=O)c2c1ccc1c2OCO1)OCO3 [(+) bicuculline]
block of enhancement of benzodiazepine binding by GABA agonists [1]: blocked

CN1CCc2cc3c(cc2[C@@H]1[C@H]1OC(=O)c2c1ccc1c2OCO1)OCO3 [(-) bicuculline]
block of enhancement of benzodiazepine binding by GABA agonists [1]: much less active

O=c1[nH]c2ccncc2c2nc(-c3ccccc3F)cn12 [Compound 1, 2-(2-Fluorophenyl)-imidazol[1,2-c]pyrido[3,4-e]pyrimidin-5(6H)-one]
IC50 (GABAa receptor): 42 nM

O=c1[nH]c2ccncc2c2nc(-c3ccccc3)cn12 [Compound 2, 2-Phenyl-imidazo[1,2-c]pyrido[3,4-e]pyrimidin-5(6H)-one]
IC50 (GABAa receptor): 169 nM

O=c1[nH]c2cccnc2c2nc(-c3ccccc3)cn12 [Compound 15, 2-Phenylimidazo[1,2-c]pyrido[2,3-e]pyrimidin-5(6H)-one]
IC50 (GABAa receptor): 132 nM
